Values quoted from earlier work, collected in patent publication US12343434B2, “Hybrid membrane camouflaged nanomedicine loaded with oxidative phosphorylation inhibitor and preparing method thereof” (Henan University, priority 2021, dated 2025).

Settings: background statement

SMILES: CCc1n(CC(=O)O[C@@H]2C[C@H](C)CC[C@H]2C(C)C)c2ccccc2[n+]1C.[Cl-] [Gboxin, 1-carboxymethyl-2-ethyl-3-methyl-1H-benzimidazole-3-ammonium L-menthol ester chloride]
- blood half-life: extremely short
